Publication PMC8531348, “Design, synthesis, biological evaluation, and molecular modeling studies of pyrazole-benzofuran hybrids as new α-glucosidase inhibitor” (Scientific Reports, 2021)
Values joined by “and” are separate entries in the source; they are usually repeats but may differ in a detail not shown here. Equal entries are not always repeated. Where two headings read alike, the source gives them in different places.

Assays:
[1] = target: T1, α-glucosidase enzyme (from Saccharomyces cerevisiae, EC3.2.1.20) (Saccharomyces cerevisiae, UniProt P53341); test: biochemical; assay type: biochemical; conditions: for fold more potent than the standard acarbose: ratio of IC50 versus acarbose
T1 construct: purchased Sigma Chemical Co. (St. Louis, USA)
T1 sequence (P53341 whole entry): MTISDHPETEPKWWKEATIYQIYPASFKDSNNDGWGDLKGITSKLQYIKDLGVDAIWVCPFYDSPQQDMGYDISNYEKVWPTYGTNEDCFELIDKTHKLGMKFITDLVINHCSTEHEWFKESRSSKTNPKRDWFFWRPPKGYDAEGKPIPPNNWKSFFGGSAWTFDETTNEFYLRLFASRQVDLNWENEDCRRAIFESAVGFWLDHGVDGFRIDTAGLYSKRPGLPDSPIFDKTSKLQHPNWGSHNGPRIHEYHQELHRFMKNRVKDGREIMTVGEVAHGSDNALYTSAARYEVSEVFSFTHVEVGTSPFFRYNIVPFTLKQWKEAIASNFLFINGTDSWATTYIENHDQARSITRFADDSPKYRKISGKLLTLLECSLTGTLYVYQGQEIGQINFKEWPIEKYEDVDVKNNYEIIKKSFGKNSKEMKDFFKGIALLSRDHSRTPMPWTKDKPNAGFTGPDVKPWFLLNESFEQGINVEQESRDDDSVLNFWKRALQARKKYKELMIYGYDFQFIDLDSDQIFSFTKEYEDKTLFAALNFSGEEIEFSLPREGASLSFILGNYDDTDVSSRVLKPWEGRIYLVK
Experimental: The α-glucosidase enzyme (from Saccharomyces cerevisiae, EC3.2.1.20) was used to evaluate the α-glucosidase inhibitory activity. […] Therefore, α-glucosidase from yeast is extensively used for the preliminary screening of α-glucosidase inhibitors[47],[48]. […] Stock solutions of the test compounds and acarbose were prepared in DMSO and eventually diluted with phosphate buffer saline to attain the desired concentration. […] The percentage of enzyme inhibition for each entry was calculated using the following formula:
% Inhibition = [(Abs control—Abs sample)/Abs control] × 100.

α-glucosidase = target: T2, α-glucosidase (Saccharomyces cerevisiae, UniProt P53341); test: Kinetic study of α-glucosidase inhibition (Lineweaver–Burk plots); assay type: biochemical
T2 construct: purchased Sigma Chemical Co. (St. Louis, USA)
T2 sequence (P53341 whole entry): as above
Experimental: In different concentrations of test compound (0, 10, 25, and 40 µM) and with the incremental concentration (2–10 mM) of substrate, the rate of the enzyme activity was calculated. The type of inhibition and experimental inhibition constant (Ki) value were determined by employing Lineweaver–Burk plots and secondary re-plot of these plots, respectively. […] This pattern indicates a competitive type of inhibition.
The kinetics of enzyme inhibition was performed according to the reaction conditions in 2.5 by preparing a series of test solutions in which the concentration of the substrate (PNPG) was varied (2–10 mM) in the absence and presence of compound 8e at different concentrations (0, 10, 25, and 40 µM). A Lineweaver–Burk plot was generated to identify the type of inhibition and the Michaelis–Menten constant (Km) value was determined from the plot between reciprocal of the substrate concentration (1/[S]) and reciprocal of enzyme rate (1/V) over various inhibitor concentrations. The experimental inhibitor constant (Ki) value was constructed by secondary plots of the inhibitor concentration [I] versus Km.

3T3 cell line = test: Cytotoxicity against normal 3T3 cell line by MTT assay; assay type: cell-based; conditions: at 150 µM concentration, 3T3, MTT
Experimental: (§1) The results of cytotoxic activity were expressed as the IC50 (µM) and outlined in Table 2.
(§2) The cytotoxicity of the compounds 8e, 8l, 8f and 8n was determined using the 3-(4,5 Dimethylthiazol-2-yl)-2,5-diphenyltetrazolium bromide (MTT) assay according to previously described methods.

[2] = as above; assay type: cell-based; conditions: mouse, 3T3 cells (normal cell line); MTT assay, normal 3T3 cell line
Experimental: as §1, §2

Compound	IC50 [1] [µM]	melting point [°C]	also measured
O=C(NN=Cc1cn(-c2ccccc2)nc1-c1ccccc1)c1cc2ccccc2o1 [8a, N'-((1,3-Diphenyl-1H-pyrazol-4-yl)methylene)benzofuran-2-carbohydrazide]	141.2 ± 1.4	210 to 211	–
Cc1ccc(-c2nn(-c3ccccc3)cc2C=NNC(=O)c2cc3ccccc3o2)cc1 [8b, N'-((1-Phenyl-3-p-tolyl-1H-pyrazol-4-yl)methylene)benzofuran-2-carbohydrazide]	108.3 ± 0.8	234 to 235	–
COc1ccc(-c2nn(-c3ccccc3)cc2C=NNC(=O)c2cc3ccccc3o2)cc1 [8c, N'-((3-(4-Methoxyphenyl)-1-phenyl-1H-pyrazol-4-yl)methylene)benzofuran-2-carbohydrazide]	100.3 ± 0.7	207 to 209	–
O=C(N/N=C/c1cn(-c2ccccc2)nc1-c1ccc(O)cc1)c1cc2ccccc2o1 [8d, (E)-N'-((3-(4-hydroxyphenyl)-1-phenyl-1H-pyrazol-4-yl)methylene)benzofuran-2-carbohydrazide]	133.6 ± 1.2	280 to 281	–
O=C(NN=Cc1cn(-c2ccccc2)nc1-c1ccc([N+](=O)[O-])cc1)c1cc2ccccc2o1 [8e, N'-((3-(4-Nitrophenyl)-1-phenyl-1H-pyrazol-4-yl)methylene)benzofuran-2-carbohydrazide]	–	–	IC50 ([1]; mean ± SD, at least three experiments, substrate p-nitrophenyl-α-glucopyranoside, read-out: IC50 α-glucosidase inhibitory activity): 40.6 ± 0.2 µM; fold more potent than the standard acarbose [1]: approximately 18 fold; type of inhibition (α-glucosidase; Lineweaver–Burk plot): competitive; Ki (α-glucosidase; secondary re-plot of Lineweaver–Burk plots, 0, 10, 25, 40 µM inhibitor, substrate 2–10 mM, read-out: inhibition constant Ki): ~38 µM and 38 µM; cytotoxicity against normal cell line (3T3 cell line): noncytotoxic; IC50 [2]: > 150 µM
O=C(NN=Cc1cn(-c2ccccc2)nc1-c1ccc(Br)cc1)c1cc2ccccc2o1 [8f, N'-((3-(4-Bromophenyl)-1-phenyl-1H-pyrazol-4-yl)methylene)benzofuran-2-carbohydrazide]	79.7 ± 0.5	243 to 245	fold more potent than the standard acarbose [1]: nine-fold; cytotoxicity against normal cell line (3T3 cell line): noncytotoxic; IC50 [2]: > 150 µM
O=C(NN=Cc1cn(-c2ccccc2)nc1-c1ccc(Cl)cc1)c1cc2ccccc2o1 [8g, N'-((3-(4-Chlorophenyl)-1-phenyl-1H-pyrazol-4-yl)methylene)benzofuran-2-carbohydrazide]	125.3 ± 1	241 to 243	–
O=C(NN=Cc1cn(-c2ccccc2)nc1-c1ccc(F)cc1)c1cc2ccccc2o1 [8h, N'-((3-(4-Fluorophenyl)-1-phenyl-1H-pyrazol-4-yl)methylene)benzofuran-2-carbohydrazide]	164 ± 1.8	253 to 254	–
O=C(NN=Cc1cn(-c2ccccc2)nc1-c1ccc(C(F)(F)F)cc1)c1cc2ccccc2o1 [8i, N'-((1-Phenyl-3-(4-(trifluoromethyl)phenyl)-1H-pyrazol-4-yl)methylene)benzofuran-2-carbohydrazide]	101.7 ± 0.7	217 to 218	–
Cc1ccc(-n2cc(C=NNC(=O)c3cc4ccccc4o3)c(-c3ccccc3)n2)cc1 [8j, N'-((3-Phenyl-1-p-tolyl-1H-pyrazol-4-yl)methylene)benzofuran-2-carbohydrazide]	157 ± 1.6	255 to 256	–
Cc1ccc(-c2nn(-c3ccc(C)cc3)cc2C=NNC(=O)c2cc3ccccc3o2)cc1 [8k, N'-((1,3-Dip-tolyl-1H-pyrazol-4-yl)methylene)benzofuran-2-carbohydrazide]	115.6 ± 0.9	259 to 261	–
COc1ccc(-c2nn(-c3ccc(C)cc3)cc2C=NNC(=O)c2cc3ccccc3o2)cc1 [8l, N'-((3-(4-Methoxyphenyl)-1-p-tolyl-1H-pyrazol-4-yl)methylene)benzofuran-2-carbohydrazide]	54.7 ± 0.3	230 to 232	increase in activity compared with compound 8c ([1]; effect of methyl group on R2): two-fold; fold more potent than the standard acarbose [1]: > 13 fold; cytotoxicity against normal cell line (3T3 cell line): noncytotoxic; IC50 [2]: > 150 µM
Cc1ccc(-n2cc(C=NNC(=O)c3cc4ccccc4o3)c(-c3ccc(O)cc3)n2)cc1 [8m, N'-((3-(4-Hydroxyphenyl)-1-p-tolyl-1H-pyrazol-4-yl)methylene)benzofuran-2-carbohydrazide]	127 ± 1	293 to 295	–
Cc1ccc(-n2cc(C=NNC(=O)c3cc4ccccc4o3)c(-c3ccc(Br)cc3)n2)cc1 [8n, N'-((3-(4-Bromophenyl)-1-p-tolyl-1H-pyrazol-4-yl)methylene)benzofuran-2-carbohydrazide]	95.6 ± 0.6	258 to 259	fold more potent than the standard acarbose [1]: approximately eight-fold; cytotoxicity against normal cell line (3T3 cell line): noncytotoxic; IC50 [2]: > 150 µM
Cc1ccc(-n2cc(C=NNC(=O)c3cc4ccccc4o3)c(-c3ccc(Cl)cc3)n2)cc1 [8o, N'-((3-(4-Chlorophenyl)-1-p-tolyl-1H-pyrazol-4-yl)methylene)benzofuran-2-carbohydrazide]	155 ± 1.6	248 to 249	–
